Measured values published in patent EP2826473A1, “NOVEL USE OF PATCHOULOL” (Chengdu Huasun Group Inc., Ltd., priority 2012, dated 2013).
≈ marks a conversion by molar mass, not a printed value. Read-outs that look alike come from different tables or passages of the source.

How the values were obtained:
[1] = test system: Acinetobacter lwoffii; assay: in vitro bacteriostatic activity, agar dilution MIC; assay type: cell-based
[2] = test system: carrageenan-induced paw edema; settings: cited from earlier work
[3] = test system: Proteus vulgaris; assay: in vitro bacteriostatic activity, agar dilution MIC; assay type: cell-based; settings: Proteus vulgaris 12-1
[4] = test system: methicillin-resistant Staphylococcus aureus ATCC 43300; assay: prevention of bacterial infection, colony count on patchoulol-coated tubes; settings: cultured 7 days at 37°C
[5] = test system: Streptococcus uberis; assay: in vitro bacteriostatic activity, agar dilution MIC; assay type: cell-based; settings: Streptococcus uberis 12-1
[6] = test system: Shiglla flexneri; assay: as above; assay type: cell-based
Procedure: (§1) Preparation of drug-containing flat plates: patchoulol was diluted by coubling double dilution in DMSO, and 1 ml and 14 ml of sterile MH culture media in different gradient concentrations were respectively added to the disposable sterile petri dishes. Tested drugs were respectively diluted to different gradient concentrations from 768 to 0.006 µg/ml, fully mixed, and dried to reserve. As mentioned above, replacing tested drug with same amount of normal saline was used to prepare positive control plates.
(§2) Preparation of bacterial liquid: Tested strains and drug-sensitive strains used for quality control were diluted with stroke-physiological saline solution to the concentration of 10^6 CFU/ml.
(§3) Bacteriostatic activity assay […]: using multipoint inoculation instrument, the tested strain liquid was added to the drug-containing flat plates with different gradient concentrations and positive control plates respectively, and replacing the bacterial liquid with 5 µL normal saline, served as the negative control.
(§4) Staphylococcus aureus and Staphylococcus epidermidis were cultured at 35-37°C for 18-24 h in MH media (containing 2% NaCl); Streptococcus pneumonia was cultured in brain heart infusion agar media (containing 5% goat blood) within an incubator under 5% CO2 at 35°C for 24 hours; Gram-negative bacteria and other strains were placed in an incubator at 35-37°C and cultured for 18-20 h; Results were observed and recorded.
(§5) Result assessment: The minimum concentration of drug in no bacterial growth plates was regarded as the minimum inhibitory concentration (MIC) of the drug to the stain.

[7] = test system: Escherichia coli E^+; assay: as above; assay type: cell-based
Procedure: as §1, §2, §3, §4, §5

[8] = test system: influenza virus type A (H2N2); settings: in vitro; cited from earlier work
[9] = test system: xylene-induced ear edema; settings: mice, dose-dependent; cited from earlier work
[10] = test system: Megasphaera elsdenii; assay: in vitro bacteriostatic activity, agar dilution MIC; assay type: cell-based
[11] = test system: Enterobacter cloacae; assay: as above; assay type: cell-based
[12] = cited from earlier work
[13] = test system: humoral immunity and mononuclear phagocyte functions; settings: intragastric 40 and 80 mg/(kg·d) for successive 7 days; cited from earlier work
[14] = test system: Staphylococcus sciuri; assay: in vitro bacteriostatic activity, agar dilution MIC; assay type: cell-based; settings: Mammaliicoccus sciuri; Staphylococcus sciuri 12-1
[15] = test system: influenza virus A/FM/1/47 (H1N1); settings: intragastric 40 and 80 mg/kg for successive 7 days; cited from earlier work
[16] = test system: Staphylococcus aureus; assay: in vitro bacteriostatic activity, agar dilution MIC, quality control strains; assay type: cell-based; settings: read-out: MIC
[17] = test system: Pseudomonas aeruginosa; assay: in vitro bacteriostatic activity, agar dilution MIC; assay type: cell-based; settings: Pseudomonas aeruginosa12-1
[18] = test system: Kurthia gibsonii; assay: as above; assay type: cell-based
[19] = test system: Staphylococcus xylosus; assay: as above; assay type: cell-based
[20] = test system: Klebsiella pneumonia; assay: in vitro bacteriostatic activity, agar dilution MIC, quality control strain and summary; assay type: cell-based; settings: Klebsiella pneumoniae
[21] = test system: neurotoxicity of Aβ25∼35; settings: in vitro, 0.05, 0.5, 5 µg/ml; cited from earlier work
[22] = test system: Staphylococcus epidermidis MRSE; assay: in vitro bacteriostatic activity, agar dilution MIC; assay type: cell-based
[23] = test system: Streptococcus agalactiae; assay: as above; assay type: cell-based; settings: Streptococcus agalactiae 12-1
[24] = test system: influenza virus FM1; settings: 30 mg/kg; cited from earlier work
[25] = test system: Escherichia coli E^-; assay: in vitro bacteriostatic activity, agar dilution MIC; assay type: cell-based
[26] = test system: Staphylococcus aureus MRSA; assay: as above; assay type: cell-based

C[C@H]1CC[C@@]2(O)C(C)(C)[C@@H]3CC[C@@]2(C)[C@H]1C3 (stereo in doubt) [PC, (1R,4S,4aS,6R,8aS)-octahydro-4,8a,9,9-tetramethyl-1,6-methanonaphthalen-1(2H)-ol]
MIC ([1]; Acinetobacter lwoffii 12-1, read-out: MIC): 50 µg/mL (≈ 225 µM)
MIC ([1]; Acinetobacter lwoffii 12-2): 50 µg/mL (≈ 225 µM)
content of NO, PGE-2, TNF-α in the hind paw ([2]; inflammatory rats, high dosage): significantly reduce
carrageenan-induced paw edema ([2]; rats, dose-dependent): effectively inhibit
MIC [3]: 100 µg/mL (≈ 450 µM)
bacterial colony numbers ([4]; 400, 200, 100 and 50 µg/ml, compared with 0 µg/ml): decrease
bacterial colony numbers ([4]; patchoulol on intraductal membranes more than or equal to 600 µg/ml): 0
MIC [5]: 25 µg/mL (≈ 112 µM)
MIC ([6]; Shiglla flexneri 12-1): 400 µg/mL (≈ 1800 µM)
MIC ([6]; Shiglla flexneri 12-2, read-out: MIC): 50 µg/mL (≈ 225 µM)
MIC ([7]; Escherichia coli E^+ 10-7): > 768 µg/mL
MIC ([7]; Escherichia coli E^+ 10-9): > 768 µg/mL
IC50 [8]: 4.03 ± 0.23 µM
xylene-induced ear edema [9]: effectively inhibit
MIC ([10]; Megasphaera elsdenii 12-1): 50 µg/mL (≈ 225 µM)
MIC ([10]; Megasphaera elsdenii 12-2): 25 µg/mL (≈ 112 µM)
MIC ([10]; Megasphaera elsdenii 12-3): 50 µg/mL (≈ 225 µM)
MIC ([10]; Megasphaera elsdenii 12-4): 50 µg/mL (≈ 225 µM)
MIC ([11]; Enterobacter cloacae 12-1, read-out: MIC): 50 µg/mL (≈ 225 µM)
MIC ([11]; Enterobacter cloacae 12-2): 50 µg/mL (≈ 225 µM)
solubility ([12]; in petroleum ether, ethanol and other commonly used organic solvents): freely soluble
solubility ([12]; in water): insoluble
thymus gland index, spleen index, sanguinin content, and clearance index [13]: effectively improve
MIC [14]: 50 µg/mL (≈ 225 µM)
survival rate of nonlethal and lethal model mice [15]: obviously improve the survival rate
MIC ([16]; ATCC25923, Staphylococcus aureus ATCC 25923): 1.5 µg/mL (≈ 6.75 µM)
MIC ([16]; ATCC29213, Staphylococcus aureus ATCC 29213): 64 µg/mL (≈ 288 µM)
MIC [17]: 50 µg/mL (≈ 225 µM)
MIC ([18]; Kurthia gibsonii 12-1, read-out: MIC): 50 µg/mL (≈ 225 µM)
MIC ([18]; Kurthia gibsonii 12-2): 50 µg/mL (≈ 225 µM)
MIC ([19]; Staphylococcus xylosus 12-1 (first line, r17), read-out: MIC): 100 µg/mL (≈ 450 µM)
MIC ([19]; Staphylococcus xylosus 12-1 (second line, r18)): 100 µg/mL (≈ 450 µM)
MIC ([20]; ATCC700603, Klebsiella pneumonia ATCC 700603, read-out: MIC): > 768 µg/mL
MIC ([20]; summary, Klebsiella pneumonia ESBLs^-/ESBLs^+, read-out: MIC values): ≥ 768 µg/mL
increase of intra-cellular ROS level and [Ca^2+]I induced by Aβ25~35 [21]: inhibit the increase
MIC ([22]; Staphylococcus epidermidis MRSE 10-40, read-out: MIC): 1.5 µg/mL (≈ 6.75 µM)
MIC ([22]; Staphylococcus epidermidis MRSE 10-44, read-out: MIC): 1.5 µg/mL (≈ 6.75 µM)
MIC ([22]; Staphylococcus epidermidis MRSE 12-11, read-out: MIC): 128 µg/mL (≈ 576 µM)
MIC ([22]; Staphylococcus epidermidis MRSE 12-12, read-out: MIC): 32 µg/mL (≈ 144 µM)
MIC ([22]; Staphylococcus epidermidis MRSE 12-15, read-out: MIC): 32 µg/mL (≈ 144 µM)
MIC ([22]; Staphylococcus epidermidis MRSE 12-16, read-out: MIC): 32 µg/mL (≈ 144 µM)
MIC ([22]; Staphylococcus epidermidis MRSE 12-17, read-out: MIC): 32 µg/mL (≈ 144 µM)
MIC ([22]; Staphylococcus epidermidis MRSE 12-18, read-out: MIC): 32 µg/mL (≈ 144 µM)
MIC ([22]; Staphylococcus epidermidis MRSE 12-19, read-out: MIC): 32 µg/mL (≈ 144 µM)
MIC ([22]; Staphylococcus epidermidis MRSE 12-20, read-out: MIC): 128 µg/mL (≈ 576 µM)
MIC ([22]; Staphylococcus epidermidis MRSE 12-21, read-out: MIC): 128 µg/mL (≈ 576 µM)
MIC ([22]; Staphylococcus epidermidis MRSE 12-22, read-out: MIC): 32 µg/mL (≈ 144 µM)
MIC [23]: 50 µg/mL (≈ 225 µM)
survival rate of infected mice [24]: improve the survival rate
MIC ([25]; Escherichia coli E^- 10-12): > 768 µg/mL
MIC ([25]; Escherichia coli E^- 10-18): > 768 µg/mL
MIC ([26]; ATCC 43300 / MRSA, Methicillin-resistant Staphylococcus aureus ATCC 43300, read-out: MIC): 128 µg/mL (≈ 576 µM)
MIC ([26]; MRSA, Staphylococcus aureus MRSA 10-31, read-out: MIC): 1.5 µg/mL (≈ 6.75 µM)
MIC ([26]; MRSA, Staphylococcus aureus MRSA 10-32, read-out: MIC): 1.5 µg/mL (≈ 6.75 µM)
MIC ([26]; MRSA, Staphylococcus aureus MRSA 12-11, read-out: MIC): 128 µg/mL (≈ 576 µM)
MIC ([26]; MRSA, Staphylococcus aureus MRSA 12-12, read-out: MIC): 128 µg/mL (≈ 576 µM)
MIC ([26]; MRSA, Staphylococcus aureus MRSA 12-13, read-out: MIC): 64 µg/mL (≈ 288 µM)
MIC ([26]; MRSA, Staphylococcus aureus MRSA 12-14, read-out: MIC): 64 µg/mL (≈ 288 µM)
MIC ([26]; MRSA, Staphylococcus aureus MRSA 12-15, read-out: MIC): 64 µg/mL (≈ 288 µM)
MIC ([26]; MRSA, Staphylococcus aureus MRSA 12-16, read-out: MIC): 64 µg/mL (≈ 288 µM)
MIC ([26]; MRSA, Staphylococcus aureus MRSA 12-17, read-out: MIC): 128 µg/mL (≈ 576 µM)
MIC ([26]; MRSA, Staphylococcus aureus MRSA 12-18, read-out: MIC): 128 µg/mL (≈ 576 µM)
MIC ([26]; MRSA, Staphylococcus aureus MRSA 12-19, read-out: MIC): 64 µg/mL (≈ 288 µM)
MIC ([26]; MRSA, Staphylococcus aureus MRSA 12-20, read-out: MIC): 128 µg/mL (≈ 576 µM)
